This passage reports EC50 results from patent publication US20170369492A1 (Takeda Pharmaceutical Company Limited, priority 2014, published 2017).

Structures are written as SMILES.

The assay addresses T1, human GPR43 (Homo sapiens, UniProt O15552).
T1 construct: expressed in transfected cells
T1 sequence (O15552 1-330): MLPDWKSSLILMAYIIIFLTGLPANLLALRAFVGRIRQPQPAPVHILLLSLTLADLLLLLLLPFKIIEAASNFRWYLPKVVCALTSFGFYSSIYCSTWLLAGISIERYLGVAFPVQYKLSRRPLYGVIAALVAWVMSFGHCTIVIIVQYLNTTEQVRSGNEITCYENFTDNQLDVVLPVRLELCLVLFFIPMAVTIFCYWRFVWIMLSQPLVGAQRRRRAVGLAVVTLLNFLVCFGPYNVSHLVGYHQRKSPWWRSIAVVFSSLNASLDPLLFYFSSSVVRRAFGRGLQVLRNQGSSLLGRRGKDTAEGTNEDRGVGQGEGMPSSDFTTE
Description: Ca-Flux Functional Assay: Determination of Agonist/Positive Allosteric Modulator (PAM) Activity. The class given is cell-based. The following applies: CHO-K1 Gα16 cells stably expressing human GPR43; compound added in the presence of EC20 sodium acetate; intracellular Ca2+ by FLIPR; agonist/PAM activity not distinguished. Summed up: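 FLIPR calcium read in CHO-K1 Gα16 cells stably expressing human GPR43, loaded with Calcium 5 dye in HBSS/HEPES/probenecid/BSA for 1 h at 37 °C. Compounds were tested in 10-point half-log series from 10 μM, co-added with sodium acetate at its EC20. EC50 taken from duplicate-well curves, capturing agonist or PAM activity without distinction.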
With `Nc1c(S(=O)(=O)N2CCN(CC(F)(F)F)CC2)c2nccnc2n1C1CCCCC1` [Example 105, 5-cyclohexyl-7-[4-(2,2,2-trifluoroethyl)-piperazine-1-sulfonyl]-5H-pyrrolo[2,3-b]pyrazin-6-amine], the half-maximal effective concentration (EC50) (as a rule, the concentration giving half of the maximal effect) was found to be 0.647 µM. The value for `Nc1c(S(=O)(=O)N2CCC(CO)CC2)c2nccnc2n1C1CCCCC1` [Example 106, (1-{6-amino-5-cyclohexyl-5H-pyrrolo[2,3-b]pyrazine-7-sulfonyl}piperidin-4-yl)methanol] was 3.05 µM. The value for `Nc1c(S(=O)(=O)N2CCC(OCC3CC3)CC2)c2nccnc2n1C1CCCCC1` [Example 107, 5-cyclohexyl-7-[4-(cyclopropylmethoxy)piperidine-1-sulfonyl]-5H-pyrrolo[2,3-b]pyrazin-6-amine] was 0.32 µM; that for `COc1ccc(S(=O)(=O)c2c(N)n(C3CCCCC3)c3nccnc23)cc1` [Example 108, 5-cyclohexyl-7-[(4-methoxybenzene)-sulfonyl]-5H-pyrrolo[2,3-b]pyrazin-6-amine] was 0.078 µM; that for `Nc1c(S(=O)(=O)C2CC2)c2nccnc2n1C1CCCCC1` [Example 109, 5-cyclohexyl-7-(cyclopropanesulfonyl)-5H-pyrrolo[2,3-b]pyrazin-6-amine] was 2.9 µM.

Regarding `Nc1c(S(=O)(=O)c2cccc(F)c2)c2nccnc2n1C1CCCCC1` [Example 110, 5-cyclohexyl-7-[(3-fluorobenzene)sulfonyl]-5H-pyrrolo[2,3-b]pyrazin-6-amine], the EC50 was found to be 0.343 µM. Then `Nc1c(S(=O)(=O)c2ccccc2F)c2nccnc2n1C1CCCCC1` [Example 111, 5-cyclohexyl-7-[(2-fluorobenzene)sulfonyl]-5H-pyrrolo[2,3-b]pyrazin-6-amine], with 0.209 µM. For `COc1cccc(S(=O)(=O)c2c(N)n(C3CCCCC3)c3nccnc23)c1` [Example 112, 5-cyclohexyl-7-[(3-methoxybenzene)-sulfonyl]-5H-pyrrolo[2,3-b]pyrazin-6-amine], the 50% effective concentration (EC50) stood at 0.295 µM. As for `N#Cc1ccc(S(=O)(=O)c2c(N)n(C3CCCCC3)c3nccnc23)cc1` [Example 113, 4-{6-amino-5-cyclohexyl-5H-pyrrolo[2,3-b]pyrazine-7-sulfonyl}benzonitrile], the concentration for a half-maximal effect (EC50) is 0.486 µM. As to `COc1ccc(S(=O)(=O)c2c(N)n(C3CCCCC3)c3nccnc23)cc1Cl` [Example 114, 7-[(3-chloro-4-methoxybenzene)-sulfonyl]-5-cyclohexyl-5H-pyrrolo[2,3-b]pyrazin-6-amine], the concentration giving a half-maximal response (EC50) was determined as 0.206 µM. Then `COc1ccc(S(=O)(=O)c2c(N)n(C3CCCCC3)c3nccnc23)cn1` [Example 115, 5-cyclohexyl-7-(6-methoxypyridine-3-sulfonyl)-5H-pyrrolo[2,3-b]pyrazin-6-amine], with 4.56 µM; and `Nc1c(S(=O)(=O)c2ccc(OC(F)(F)F)cc2)c2nccnc2n1C1CCCCC1` [Example 116, 5-cyclohexyl-7-{[4-(trifluoromethoxy)-benzene]sulfonyl}-5H-pyrrolo[2,3-b]pyrazin-6-amine], with 1.08 µM; and `Nc1c(S(=O)(=O)c2ccc3c(c2)OCCO3)c2nccnc2n1C1CCCCC1` [Example 117, 5-cyclohexyl-7-(2,3-dihydro-1,4-benzodioxine-6-sulfonyl)-5H-pyrrolo[2,3-b]pyrazin-6-amine], with 0.124 µM. In the case of `Nc1c(S(=O)(=O)c2ccc(OC(F)F)cc2)c2nccnc2n1C1CCCCC1` [Example 118, 5-cyclohexyl-7-{[4-(difluoromethoxy)-benzene]sulfonyl}-5H-pyrrolo[2,3-b]pyrazin-6-amine], the half-maximal effective concentration (EC50) amounted to 0.177 µM.
